Experiments:
U2OS cells = assay: 53BP1-positive DNA damage foci (DSB) staining; assay type: cell-based; settings: ZNF365-deficient U2OS cells (shZNF-2 or shZNF-5), additional treatment with 1 μM ABT888
Excerpt: FIGS. 10A-10C show increased DNA double strand breaks (DSB) in ZNF365-deficient cells.
U2OS cells infected with either a control scrambled shRNA (Scr) to establish the basal DSB levels or with either of two independent shRNA sequences targeting ZNF365 (shZNF-2 or shZNF-5) were scored for 53BP1-positive damage foci as an indicator of DSB (FIG. 10A; red highlighted dots indicates foci and dotted circles indicate nuclei). Quantification of the 53BP1-positive foci indicated increased numbers of DSB in ZNF365-deficient cells (FIG. 10B).

[1] = test system: MCF7 breast cancer cell line; assay: MTT cell proliferation assay; assay type: cell-based; settings: MCF7 control (TR) vs shZNF cells, different doses of ABT888 for 48 hours with or without radiation (2 Gy)
Procedure: Control cells of the MCF7 breast cancer cell line (TR), as well as MCF7 cells transfected with shRNAs targeting ZNF365 (shZNF) were treated with different doses of the PARP inhibitor, ABT888, for 48 hours with or without radiation (2 Gy). A standard MTT cell proliferation assay was performed to determine cell viability.

C[C@]1(c2nc3c(C(N)=O)cccc3[nH]2)CCCN1 [ABT888]
53BP1-positive DNA damage foci as an indicator of DSB (U2OS cells): became more prominent
cell viability [1]: ZNF365 deficiency sensitizes cells

Reference: patent US10378060B2, “ZNF365/ZFP365 biomarker predictive of anti-cancer response” (Dana-Farber Cancer Institute, Inc., priority 2011, dated 2019)
